Results as given in article PMC6018403 (Frontiers in Pharmacology, 2018).
Like-named read-outs stand apart in the source and are kept apart here. Values belong to the compound of their own block, whether it stands above or below them.

Tests used:
[1] = Multi-component pharmacokinetic study of GQD, GQD-GC and single herb extracts in rats (plasma, LC/MS/MS); assay type: in vivo, Sprague-Dawley rats; conditions: for AUC(0-t) / Cmax / half-life / Tmax: male, Sprague-Dawley, rat; for AUC(0-t): po, read-out: AUClast; for Cmax: read-out: Cmax; for half-life: read-out: T1/2 (converted); for Tmax: read-out: Tmax
Method in brief: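 Male Sprague-Dawley rats (220–250 g, n = 10 per group) dosed orally with GQD, GQD-GC (1.0 g crude drug/mL) or single-herb decoctions. Plasma analytes quantified by LC/MS/MS in positive-ESI SRM mode. Cmax and Tmax taken from measured data, other parameters by non-compartmental or compartmental analysis; mean ± SD.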

[2] = in vivo; set-up: species or system Sprague-Dawley rats; conditions: male, Sprague-Dawley, rat, po
Procedure: For the PK study of berberine and glycyrrhizic acid, rats were randomly divided into four groups (n = 8 for each group) before oral administration. Two groups were respectively treated with 59.4 mg/kg of berberine and 84.8 mg/kg of glycyrrhizic acid; the third group was treated with 59.4 mg/kg of berberine and 2.36 g/kg of licorice water decoction (0.5 g/mL); and the last group received 59.4 mg/kg of berberine and 84.8 mg/kg of glycyrrhizic acid. The dosage of single compounds were calculated according to their contents in the administrated GQD extract. Sample collection were the same as described for GQD. […] The plasma samples were stored at −80°C. Samples were prepared for LC/MS/MS analysis as described in our previous study (Qiao et al., [2012]), as described in Supplemental Data. LC/MS/MS calibration and quantitation data were processed with Xcalibur 2.0.7 software (ThermoFisher). The maximal plasma concentrations (Cmax) and their time of occurrence (Tmax) were obtained directly from the measured data. Other pharmacokinetic parameters were calculated by non-compartment or compartment models using WinNonlin® software (v6.1, Pharsight). Unless otherwise stated, results were expressed as the mean ± SD. Statistical significance in differences of the means was determined by Student's t–test, with a significance level of P < 0.05.

[3] = GC (Gan-Cao) group: rats, oral extract 2.36 g/kg, plasma
[4] = plasma, 18.9 g/kg, GQD group: rats, oral GQD extract 18.9 g/kg, plasma
[5] = GQD group: rats, oral GQD extract 18.9 g/kg, plasma
[6] = GQD-GC group (GQD without Gan-Cao): rats, oral 16.5 g/kg, plasma
[7] = HL (Huang-Lian) group: rats, oral extract 3.54 g/kg, plasma

AUClast [1, 3]: 790.47 ± 362.54 ng·h/mL
AUC(0-t) [1, 4]: 871 ± 571 ng·h/mL
AUC(0-t) ([1]; plasma, 18.9 g/kg, GQD group: rats, oral GQD 18.9 g/kg (1.5-fold of clinical dosage), plasma): 871 ± 571 ng·h/mL
Cmax [1, 3]: 46.4 ± 0.89 ng/mL
half-life [1, 3]: 4.08 ± 1.07 h
Tmax [1, 3]: 5.89 ± 0.98 h
Cmax [1, 5]: 55.6 ± 14.3 ng/mL
half-life [1, 5]: 4.78 ± 9.98 h
Tmax [1, 5]: 6.9 ± 0.28 h
change of pharmacokinetics by GQD compared with Gan-Cao ([1]; rats, oral): hardly changed
Structure (SMILES): CC1(C)[C@@H](O[C@H]2O[C@H](C(=O)O)[C@@H](O)[C@H](O)[C@H]2O[C@@H]2O[C@H](C(=O)O)[C@@H](O)[C@H](O)[C@H]2O)CC[C@]2(C)[C@H]3C(=O)C=C4[C@@H]5C[C@@](C)(C(=O)O)CC[C@]5(C)CC[C@@]4(C)[C@]3(C)CC[C@@H]12 [Compound 36, glycyrrhizic acid]

AUC(0-t) ([1]; plasma, 3.54 g/kg, HL (Huang-Lian) group: rats, oral extract 3.54 g/kg, plasma): 198 ± 76.9 ng·h/mL
AUC(0-t) ([1]; plasma, 3.54 g/kg, Huang-Lian group: rats, oral 3.54 g/kg, plasma): 198 ± 76.9 ng·h/mL
AUC(0-t) ([1]; plasma, 16.5 g/kg, GQD-GC group (GQD without Gan-Cao): rats, oral 16.5 g/kg, plasma): 149 ± 70.8 ng·h/mL
AUC(0-t) ([1]; plasma, 16.5 g/kg, GQD−GC group: rats, oral 16.5 g/kg, plasma): 149 ± 70.8 ng·h/mL
AUC(0-t) [1, 4]: 389 ± 187 ng·h/mL
Cmax [1, 5]: 28.2 ± 17.4 ng/mL
half-life [1, 5]: 11.4 ± 2.78 h
Tmax [1, 5]: 0.39 ± 0.76 h
Cmax [1, 6]: 32.3 ± 13.2 ng/mL
half-life [1, 6]: 7.09 ± 0.65 h
Tmax [1, 6]: 0.35 ± 0.23 h
Cmax [1, 7]: 76.7 ± 27.9 ng/mL
half-life [1, 7]: 9.3 ± 1.67 h
Tmax [1, 7]: 0.29 ± 1.12 h
increase of AUClast in GQD group compared with the Huang-Lian group ([1]; rats, oral, GQD vs Huang-Lian): 96.5%
improvement of plasma concentrations by GQD (vs Huang-Lian) ([1]; rats, oral, abstract): at least 30%
increase of AUClast of berberine by GLY [2]: around 6 folds
Cmax ([2]; 59.4 mg/kg): 12.2 ± 4.85 ng/mL
Cmax of berberine ([2]; 59.4 mg/kg): 117.12 ± 90.22 ng/mL
T1/2 of berberine ([2]; 59.4 mg/kg): 8.47 ± 2.90 h
half-life ([2]; 59.4 mg/kg, T1/2 of berberine): 7.53 ± 1.65 h
Structure (SMILES): COc1ccc2cc3[n+](cc2c1OC)CCc1cc2c(cc1-3)OCO2 [Compound 24, berberine]
